Earlier results in patent US11466400B2, “Finish composition” (Hexcel Corporation, priority 2018, dated 2022).

pKa: 1.873
SMILES: O=C(O)CNCC(=O)O [Iminodiacetic acid]
